Experimental data reported in patent US5624668A (Luitpold Pharmaceuticals, Inc., priority 1995, dated 1997).

Experiments:
[1] = system: hemoglobin or ferritin-related stores; details: given in early stage of iron deficiency (ferritin below 100 ug/L or transferrin saturation below 20%)
[2] = system: hemoglobin or ferritin-related stores; details: cited from earlier work

In the case of iron dextran, the hemoglobin response [1] is given as “without a concomitant increase in hemoglobin”, the serum ferritin response [1] is given as “rise in serum ferritin” and the “quantitative iron utilization for hemoglobin or ferritin-related stores” value ([2]; dialysis-associated anemia, within the first 90 days after infusion, previous retrospective analysis) is given as “highly variable and incomplete within the first 90 days”. For the same substance, the “recovery of iron for hemoglobin synthesis or iron stores” value ([2]; iron deficiency anemia and normal renal function, early after intravenous infusion) was “incomplete”.
